The source of these data is patent US12281121B2, “N-containing heteroaryl derivative and pharmaceutical composition comprising same as active ingredient for prevention or treatment of cancer” (VORONOI Inc., priority 2019, dated 2025).

Molecules are shown by their SMILES.

Experiment [1] deals with Ba/F3 KIF5B-RET (WT) cells. Description: Cell proliferation inhibition, CellTiter-Glo. Type of experiment: cell-based. The conditions noted are these: Mus musculus, BaF3, 72 hours. How it is done: (§1) Among lung cancer cell lines, which express RET fusion genes, LC-2/ad cells were cultured after adding 10% FBS (HyClone) to RPMI:F12 (1:1) (Invitrogen), and F-12 (Invitrogen) supplemented with 10% FBS was used for TT cells. RPMI-1640 supplemented with 10% FBS and 5 ng/ml IL-3 (R&D Systems) was used for Ba/F3 cells. Transduced Ba/F3 cells were cultured by adding 1 ug/ml puromycin (Invitrogen) to the same medium. 24 hours before cells were treated with the compound, 3000 to 5000 cells were aliquoted into each well of a white clear bottom 96 well plate (Corning). The compound was diluted in DMSO (3-fold dilution, a total of 12 concentrations) and the compound was injected by 0.5 μl such that the final concentration was 0.3 nM to 50 μM. For the measurement of living cells, 72 hours after the compound treatment, the cells were stored at room temperature for 10 minutes using a CellTiter-Glo luminescent cell-viability agent (Promega), and then the luminescence intensity was measured using a reader (SynergyNeo, Biotek). Each experiment was repeated in triplicate. The result value was calculated by the cell growth ratio (%) compared to the control. A graph was drawn using the GraphPad Prism version 5.0 program, and a GI50 (nM) value was calculated.
(§2) In the cell assay column, LC-2/ad (with CCDC6-RET gene) is a lung cancer cell line, a TT cell line ([…]) is a thyroid cancer cell line, Ba/F3 CCDC6-RET (WT), Ba/F3 KIF5B-RET (WT), and Ba/F3 KIF5B-RET (V804M) are cells in which disease-related traits (CCDC6-RET, KIF5B-RET, and KIF5B-RET (V804M)) are introduced into Ba/F3 cells, and Ba/F3 (naive) is a cell which is not transduced.

For experiment [2], the system named is Ba/F3 CCDC6-RET (WT) cells. Description: Cell proliferation inhibition, CellTiter-Glo. The experiment is classed as cell-based. The conditions noted are these: BaF3/CCDC6-RET, 72 hours. How it is done: as §1, §2
The test system of experiment [3] is Ba/F3 KIF5B-RET (V804M) cells. Briefly: Cell proliferation inhibition, CellTiter-Glo. The experiment is classed as cell-based. As to conditions: Mus musculus, BaF3, 72 hours. As to the method:
as §1, §2

The subject of a further experiment is Ba/F3 (naive) cells. Briefly: Cell proliferation inhibition, CellTiter-Glo. Type of experiment: cell-based. As to conditions: Mus musculus, BaF3; Ba/F3 not transduced, 72 hours. How it is done:
as §1, §2

A further experiment has as its target T1, RET (WT) (Homo sapiens, UniProt P07949).
T1 construct: human RET (658-end, SIGNALCHEM); purchased SIGNALCHEM
T1 sequence (P07949 658-1114 limits assumed): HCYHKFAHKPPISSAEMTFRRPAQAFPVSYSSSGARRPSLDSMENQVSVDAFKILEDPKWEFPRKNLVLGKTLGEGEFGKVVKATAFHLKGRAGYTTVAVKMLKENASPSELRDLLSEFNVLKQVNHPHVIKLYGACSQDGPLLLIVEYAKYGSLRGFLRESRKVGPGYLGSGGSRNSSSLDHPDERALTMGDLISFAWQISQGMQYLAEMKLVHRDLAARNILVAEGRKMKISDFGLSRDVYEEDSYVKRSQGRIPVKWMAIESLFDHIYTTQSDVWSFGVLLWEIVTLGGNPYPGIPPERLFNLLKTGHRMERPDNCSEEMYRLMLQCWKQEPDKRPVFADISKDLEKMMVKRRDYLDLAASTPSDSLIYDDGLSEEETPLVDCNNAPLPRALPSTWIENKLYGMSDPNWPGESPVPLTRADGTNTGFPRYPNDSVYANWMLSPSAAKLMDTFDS
Description: RET enzyme inhibitory ability, ADP-Glo kinase assay. Type of experiment: biochemical. The conditions noted are these: ATP 10 μM, 25° C., 1 hour. How it is done: The Example compound was reacted with a purified human RET (658-end, SIGNALCHEM) enzyme to evaluate the enzyme inhibitory ability by the following method. As a reaction buffer, a composition of 40 mM Tris-HCl pH 7.4, 20 mM MgCl2, 0.5 mg/mL BSA, and 50 μM DTT was used, and all experimental materials were reacted on the reaction buffer. After the human RET (658-end, 0.8 ng) enzyme was reacted with purified ATP (10 μM) and a specific substrate solution at 25° C. for 1 hour during the experiment, the enzyme activity was confirmed using in vitro ADP-Glo™ kinase assay (Promega). Luminescence was measured by reacting the enzyme activity reaction solution, the ADP-Glo reaction solution, and the enzyme activity detection solution at a ratio of 2:2:1. The degree of inhibition of enzyme activity according to the treatment concentration of each compound was calculated based on the […] of the enzyme activity of a solvent control group in which a compound was not treated, and in this case, the concentration of each compound which suppresses the […] enzyme activity by 50% was determined as an IC50 (nM) value. The IC50 (nM) of each compound was determined by 3 datasets and obtained using Prism (version 7.01, GraphPad) software.
In the enzyme assay column, RET (WT) is a non-mutated form, RET (V804M) is a mutated form in which the V amino acid at position 804 of the RET is substituted with M, and CCDC6-RET is a form in which the RET (WT) gene and CCDC6 gene are fused.

Regarding `Cc1cc(Nc2nc(-c3ccc(N4CC5CC(C4)N5Cc4ccc5ncccc5c4)nc3)nc3ccccc23)n[nH]1` [Example 18, N-(5-methyl-1H-pyrazol-3-yl)-2-(6-(6-(quinolin-6-ylmethyl)-3,6-diazabicyclo [3.1.1]heptan-3-yl)pyridin-3-yl)quinazolin-4-amine], the 50% growth inhibitory concentration (GI50) stood at 28 nM in experiment [1], 67 nM in experiment [2], 25 nM in experiment [3] and 4600 nM with Ba/F3 (naive) cells. The molecule further had an IC50 on RET (WT) of 34 nM.

Regarding `Cc1cc(Nc2nc(-c3ccc(N4CC5CC(C4)N5Cc4ccc(N(C)C)nc4)nc3)nc3ccccc23)n[nH]1` [Example 20, 2-(6-(6-((6-(di-methylamino)py-ridin-3-yl)meth-yl)-3,6-diazabicyclo [3.1.1]heptan-3-yl)pyridin-3-yl)-N-(5-methyl-1H-pyrazol-3-yl)quinazolin-4-amine], the GI50 in experiment [1] came to 11 nM; in experiment [2] it was 44 nM; in experiment [3], 6 nM; with Ba/F3 (naive) cells it was 2780 nM. For the same molecule, at RET (WT), the midpoint of inhibition, the IC50, lay at 14 nM.

Regarding `Cc1cc(Nc2nc(-c3ccc(N4CC5CC(C4)N5Cc4cnc[nH]4)nc3)nc3ccccc23)n[nH]1` [Example 13, 2-(6-(6-((1H-imidazol-5-yl)methyl)-3,6-diazabicyclo [3.1.1]heptan-3-yl)pyridin-3-yl)-N-(5-methyl-1H-pyrazol-3-yl)quinazolin-4-amine], in experiment [3], the GI50 came to 2450 nM.

With `Cc1ccc(CN2C3CC2CN(c2ccc(-c4nc(Nc5cc(C)[nH]n5)c5ccccc5n4)cn2)C3)cn1` [Example 10], the GI50 in experiment [1] amounted to 9 nM; in experiment [2], 39 nM; in experiment [3] it was 10 nM; in the experiment on Ba/F3 (naive) cells it was 920 nM. Further, at RET (WT), the IC50 was found to be 10 nM.

Take `COc1ccc(CN2CCN(c3ccc(-c4nc(Nc5cc(C)[nH]n5)c5ccccc5n4)cn3)CC2(C)C)cn1` [Example 29, 2-(6-(4-((6-meth-oxypyridin-3-yl)methyl)-3,3-dimethyl-piperazin-1-yl)pyridin-3-yl)-N-(5-methyl-1H-pyrazol-3-yl)quinazolin-4-amine]: the GI50 in experiment [1] was 164 nM; in experiment [2], 454 nM; in experiment [3], 89 nM; with Ba/F3 (naive) cells, 6320 nM. At RET (WT), the half-inhibitory concentration (IC50) is 123 nM.

In the case of `Cc1cc(Nc2nc(-c3ccc(N4CC5CC(C4)N5Cc4ncc(C)s4)nc3)nc3ccccc23)n[nH]1` [Example 5, N-(5-methyl-1H-pyrazol-3-yl)-2-(6-(6-((5-methylthiazol-2-yl)methyl)-3,6-diazabicyclo [3.1.1]heptan-3-yl)pyridin-3-yl)quinazolin-4-amine], the concentration for 50% growth inhibition (GI50) was determined as 7 nM in experiment [1], 41 nM in experiment [2], 4 nM in experiment [3] and 1060 nM in the experiment with Ba/F3 (naive) cells. This molecule had a half-inhibitory concentration (IC50) against RET (WT) of 18 nM.

Take `COc1ccc(CN2CC3CC(C2)N3c2ccc(-c3nc(Nc4cc(C)[nH]n4)c4ccccc4n3)cn2)cn1` [Example 6, 2-(6-(3-((6-methoxypyridin-3-yl)methyl)-3,6-diazabicyclo [3.1.1]heptan-6-yl)pyridin-3-yl)-N-(5-methyl-1H-pyrazol-3-yl)quinazolin-4-amine]: the concentration for 50% growth inhibition (GI50) worked out at 67 nM in experiment [1], 166 nM in experiment [2], 70 nM in experiment [3] and 9220 nM in the experiment on Ba/F3 (naive) cells. At RET (WT), this molecule had an IC50 of 27 nM.

On to `Cc1cc(Nc2nc(-c3ccc(N4CC5CC(C4)N5Cc4ccc(F)cc4)nc3)nc3ccccc23)n[nH]1` [Example 22, 2-(6-(6-(4-fluorobenzyl)-3,6-diazabicyclo [3.1.1]heptan-3-yl)pyridin-3-yl)-N-(5-methyl-1H-pyrazol-3-yl)quinazolin-4-amine], for which the GI50 worked out at 20 nM in experiment [1], 55 nM in experiment [2], 6 nM in experiment [3] and 1220 nM in the experiment with Ba/F3 (naive) cells. In addition, at RET (WT), the IC50 was 20 nM.

As to `Cc1cc(Nc2nc(-c3ccc(N4CC5CC(C4)N5Cc4ccc(NS(C)(=O)=O)cc4)nc3)nc3ccccc23)n[nH]1` [Example 21, N-(4-((3-(5-(4-((5-methyl-1H-pyrazol-3-yl)a-mino)quinazolin-2-yl)pyridin-2-yl)-3,6-diazabicyclo [3.1.1]heptan-6-yl)methyl)phenyl) methane-sulfonamide], the GI50 in experiment [3] turned out to be 117 nM.

`COc1ccc(CN2C(C)CN(c3ccc(-c4nc(Nc5cc(C)[nH]n5)c5ccccc5n4)cn3)C[C@H]2C)cn1` (stereo in doubt) [Example 35, 2-(6-((3R,5S)-4-((6-methoxy-pyridin-3-yl)methyl)-3,5-dimethyl-piperazin-1-yl)pyridin-3-yl)-N-(5-methyl-1H-pyrazol-3-yl)quinazolin-4-amine]: in experiment [3], the GI50 came to 328 nM.

For the molecule `COc1ncc(CN2C3CC2CN(c2ccc(-c4nc(Nc5cc(C)[nH]n5)c5ccccc5n4)cn2)C3)cc1Cl` [Example 16, 2-(6-(6-((5-chloro-6-methoxypyridin-3-yl)methyl)-3,6-diazabicyclo [3.1.1]heptan-3-yl)pyridin-3-yl)-N-(5-methyl-1H-pyrazol-3-yl)quinazolin-4-amine], the concentration for 50% growth inhibition (GI50) in experiment [1] was 42 nM; in experiment [2] it was 127 nM; in experiment [3] it was 39 nM; with Ba/F3 (naive) cells, 4010 nM. The same molecule gave an IC50 at RET (WT) of 60 nM.

With `COc1ccc(CN2C[C@H](C)N(c3ccc(-c4nc(Nc5cc(C)[nH]n5)c5ccccc5n4)cn3)C[C@H]2C)cn1` [Example 28, 2-(6-((2S,5R)-4-((6-methoxy-pyridin-3-yl)methyl)-2,5-di-methylpiperazin-1-yl)pyridin-3-yl)-N-(5-methyl-1H-pyrazol-3-yl)quinazolin-4-amine], the 50% growth inhibitory concentration (GI50) in experiment [3] was 321 nM.

Take `COc1ccc(CN2CCN(c3ccc(-c4nc(Nc5cc(C)[nH]n5)c5ccccc5n4)cn3)C[C@@H]2C)cn1` [Example 33, (S)-2-(6-(4-((6-methoxypyridin-3-yl)methyl)-3-methylpiperazin-1-yl)pyridin-3-yl)-N-(5-methyl-1H-pyrazol-3-yl)quinazolin-4-amine]: the GI50 in experiment [3] was determined as 121 nM.

Turning to `Cc1cc(Nc2nc(-c3ccc(N4CC5CC(C4)N5Cc4ccn(C)c(=O)c4)nc3)nc3ccccc23)n[nH]1` [Example 27, 1-methyl-4-((3-(5-(4-((5-methyl-1H-pyrazol-3-yl)amino)quina-zolin-2-yl)pyridin-2-yl)-3,6-diazabicyclo [3.1.1]heptan-6-yl)methyl)pyri-din-2(1H)-one], in experiment [3], the concentration for 50% growth inhibition (GI50) amounted to 159 nM.

For the molecule `COc1ccc(CN2C[C@@H](C)N(c3ccc(-c4nc(Nc5cc(C)[nH]n5)c5ccccc5n4)cn3)C[C@@H]2C)cn1` [Example 32], in experiment [3], the concentration for 50% growth inhibition (GI50) came to 239 nM.

As to `Cc1cc(Nc2nc(-c3ccc(N4CC5CC(C4)N5Cc4cc(F)c(OC(C)C)c(F)c4)nc3)nc3ccccc23)n[nH]1` [Example 11, 2-(6-(6-(3,5-difluoro-4-isopropoxy-benzyl)-3,6-diazabicyclo [3.1.1]heptan-3-yl)pyridin-3-yl)-N-(5-methyl-1H-pyrazol-3-yl)quinazolin-4-amine], the concentration for 50% growth inhibition (GI50) in experiment [3] is 119 nM.
